Measured values as given in patent publication US20230172206A1 (BASF SE, priority 2020, published 2023).
“And” between values parts separate entries of the source, which are not always exact repeats. Equal values may be shown once.

system: Septoria tritici; test: Micro titer plate test against leaf blotch on wheat (SEPTTR); format: cell-based; conditions: not given

Row | Compound | Fungal growth (%) SEPTTR [%]
1 | CNC(=O)/C(=N/OC)c1cccc(C)c1CO/N=C(\C)c1cccc(C(F)(F)F)c1 [compound 8] | 57

same assay, conditions: 0.25 ppm, 7 days after inoculation, relative to compound-free control (100%)

Row | Compound | Fungal growth (%) SEPTTR [%]
2 | CNC(=O)/C(=N/OC)c1cccc(C)c1CO/N=C(\OC)c1cccc(C)c1 | 100
3 | CNC(=O)/C(=N/OC)c1cccc(C)c1CO/N=C(/c1cccc(C)c1)C1CC1 | 87
4 | CNC(=O)/C(=N/OC)c1cccc(C)c1CO/N=C(\OC)c1cccc(C(F)(F)F)c1 [drawing 948] | 77
5 | CO/N=C(/C(=O)OC)c1cccc(C)c1CO/N=C(\SC)c1cccc(C)c1 [drawing 952] | 61
6 | CO/N=C(/C(=O)OC)c1cccc(C)c1CO/N=C(/c1cccc(C)c1)C1CC1 [drawing 953] | 89
7 | CO/N=C(/C(=O)OC)c1cccc(C)c1CO/N=C(\SC)c1cccc(Cl)c1 [drawing 962] | 39
8 | CO/N=C(/C(=O)OC)c1cccc(C)c1CO/N=C(/c1cccc(Cl)c1)C1CC1 [drawing 963] | 39
9 | CNC(=O)/C(=N/OC)c1cccc(C)c1CO/N=C(\SC)c1cccc(Cl)c1 [drawing 968] | 59

system: Alternaria solani (wt); test: not given; format: cell-based; conditions: not given

Row | Compound | Fungal growth (%) ALTESO wt [%]
10 | CNC(=O)/C(=N/OC)c1cccc(C)c1CO/N=C(\C)c1cccc(C(F)(F)F)c1 [compound 8] | 56

same assay, conditions: 0.016 ppm, 7 days after inoculation, relative to compound-free control (100%)

Row | Compound | Fungal growth (%) ALTESO wt [%]
11 | CO/N=C(/C(=O)OC)c1cccc(C)c1CO/N=C(\OC)c1cccc(C)c1 | 93
12 | CNC(=O)/C(=N/OC)c1cccc(C)c1CO/N=C(\OC)c1cccc(C)c1 | 93
13 | CNC(=O)/C(=N/OC)c1cccc(C)c1CO/N=C(/c1cccc(C)c1)C1CC1 | 89
14 | CO/N=C(/C(=O)OC)c1cccc(C)c1CO/N=C(\C)c1cccc(OC(F)(F)F)c1 [drawing 936] | 94
15 | CNC(=O)/C(=N/OC)c1cccc(C)c1CO/N=C(\OC)c1cccc(C(F)(F)F)c1 [drawing 948] | 100
16 | CO/N=C(/C(=O)OC)c1cccc(C)c1CO/N=C(\SC)c1cccc(C)c1 [drawing 955] | 67
17 | CO/N=C(/C(=O)OC)c1cccc(C)c1CO/N=C(/c1cccc(C)c1)C1CC1 [drawing 957] | 100
18 | CO/N=C(/C(=O)OC)c1cccc(C)c1CO/N=C(\SC)c1cccc(Cl)c1 [drawing 962] | 94
19 | CO/N=C(/C(=O)OC)c1cccc(C)c1CO/N=C(/c1cccc(Cl)c1)C1CC1 [drawing 963] | 81

same assay, conditions: 0.25 ppm, 7 days after inoculation, relative to compound-free control (100%)

Row | Compound | Fungal growth (%) ALTESO wt [%]
20 | CNC(=O)/C(=N/OC)c1cccc(C)c1CO/N=C(\SC)c1cccc(Cl)c1 [drawing 968] | 43

system: Alternaria solani (F129L); test: Micro titer plate test against early blight (ALTESO F129L); format: cell-based; conditions: 0.016 ppm, 7 days after inoculation, relative to compound-free control (100%)

Row | Compound | Fungal growth (%) ALTESO F129L [%]
21 | CNC(=O)/C(=N/OC)c1cccc(C)c1CO/N=C(\SC)c1cccc(C(F)(F)F)c1 | 85
22 | CO/N=C(/C(=O)OC)c1cccc(C)c1CO/N=C(\OC)c1cccc(C)c1 | 81
23 | CNC(=O)/C(=N/OC)c1cccc(C)c1CO/N=C(\OC)c1cccc(C)c1 | 95
24 | CNC(=O)/C(=N/OC)c1cccc(C)c1CO/N=C(/c1cccc(C)c1)C1CC1 | 93
25 | CNC(=O)/C(=N/OC)c1cccc(C)c1CO/N=C(\OC)c1cccc(C(F)(F)F)c1 [drawing 948] | 87
26 | CO/N=C(/C(=O)OC)c1cccc(C)c1CO/N=C(\SC)c1cccc(C)c1 [drawing 955] | 66
27 | CO/N=C(/C(=O)OC)c1cccc(C)c1CO/N=C(/c1cccc(C)c1)C1CC1 [drawing 957] | 87
28 | CO/N=C(/C(=O)OC)c1cccc(C)c1CO/N=C(\SC)c1cccc(Cl)c1 [drawing 962] | 100
29 | CO/N=C(/C(=O)OC)c1cccc(C)c1CO/N=C(/c1cccc(Cl)c1)C1CC1 [drawing 963] | 89
30 | CNC(=O)/C(=N/OC)c1cccc(C)c1CO/N=C(\SC)c1cccc(Cl)c1 [drawing 968] | 90

same assay, conditions: 0.016 ppm, 7 days after inoculation, relative to compound-free control (100%); listed as Ex. 8

Row | Compound | Fungal growth (%) ALTESO F129L
31 | CNC(=O)/C(=N/OC)c1cccc(C)c1CO/N=C(\C)c1cccc(C(F)(F)F)c1 [compound 8] | 55% and 52%

same assay, conditions: 4 ppm, 7 days after inoculation, relative to compound-free control (100%)

Row | Compound | Fungal growth (%) ALTESO F129L [%]
32 | CO/N=C(/C(=O)OC)c1cccc(C)c1CO/N=C(\C)c1cccc(OC(F)(F)F)c1 [drawing 940] | 87

system: Cercospora sojina; test: not given; format: cell-based; conditions: 4 ppm, 7 days after inoculation, relative to compound-free control (100%)

Row | Compound | Fungal growth (%) CERCSO [%]
33 | CO/N=C(/C(=O)OC)c1cccc(C)c1CO/N=C(\OC)c1cccc(C(F)(F)F)c1 | 56
34 | CNC(=O)/C(=N/OC)c1cccc(C)c1CO/N=C(\SC)c1cccc(C(F)(F)F)c1 | 66
35 | CO/N=C(/C(=O)OC)c1cccc(C)c1CO/N=C(\OC)c1cccc(C)c1 | 67
36 | CO/N=C(/C(=O)OC)c1cccc(C)c1CO/N=C(\C)c1cccc(OC(F)(F)F)c1 [drawing 936] | 33
37 | CNC(=O)/C(=N/OC)c1cccc(C)c1CO/N=C(\OC)c1cccc(C(F)(F)F)c1 [drawing 950] | 60
38 | CO/N=C(/C(=O)OC)c1cccc(C)c1CO/N=C(\SC)c1cccc(C)c1 [drawing 955] | 71
39 | CO/N=C(/C(=O)OC)c1cccc(C)c1CO/N=C(/c1cccc(C)c1)C1CC1 [drawing 957] | 87
40 | CO/N=C(/C(=O)OC)c1cccc(C)c1CO/N=C(\SC)c1cccc(Cl)c1 [drawing 965] | 62
41 | CO/N=C(/C(=O)OC)c1cccc(C)c1CO/N=C(/c1cccc(Cl)c1)C1CC1 [drawing 966] | 61
42 | CNC(=O)/C(=N/OC)c1cccc(C)c1CO/N=C(\SC)c1cccc(Cl)c1 [drawing 970] | 78
